Entries after “also recorded” stand apart in the source; their conditions may differ. Read-outs that look alike come from different tables or passages of the source. Some results are limits rather than exact numbers.

Experiment [1] deals with T1, S1P1 (Homo sapiens (Human), UniProt P21453). The experiment can be described thus: Receptor [35S] GTPγS binding assay (S1P1 GTPγS), membranes from S1P1/CHO cells. It counts as biochemical. As to conditions: for activity as an agonist of S1P1: result in words. The protocol: (§1) Receptor [^35S] GTPγS Binding Assays: (S1P1 GTPγS/S1P3 GTPγS)
(§2) Membranes prepared from S1P1/CHO cells or EDG3-Gal5-bla HEK293T cells (EDG3 equivalent S1P3) were added to the compound plate ([…], final protein 3 μg/well) with MULTIDROP®. [^35S]GTP (1250 Ci/mmol, Perkin Elmer) was diluted in assay buffer: 20 mM HEPES, pH7.5, 10 mM MgCl2, 150 mM NaCl, 1 mM EGTA (ethylene glycol tetraacetic acid), 1 mM DTT (Dithiothreitol), 10 μM GDP, 0.1% fatty acid free BSA, and 10 μg/ml Saponin to 0.4 nM. 40 μl of the [^35S] GTP solution was added to the compound plate with a final concentration of 0.2 nM. The reaction was kept at room temperature for 45 min. At the end of incubation, all the mixtures in the compound plate were transferred to Millipore 384-well FB filter plates via the VELOCITY11® Vprep liquid handler. The filter plate was washed with water 4 times by using the manifold Embla plate washer and dried at 60° C. for 45 min. MicroScint 20 scintillation fluid (30 μl) was added to each well for counting on the Packard TOPCOUNT®.
A larger value for the GTPγS S1P3 EC50 value indicated less activity in the GTPγS S1P3 binding assay.

The target of another experiment is S1P3 (EDG3) (Homo sapiens (Human), UniProt Q99500). The experiment can be described thus: Receptor [35S] GTPγS binding assay (S1P3 GTPγS), membranes from EDG3-Gal5-bla HEK293T cells. It counts as biochemical. The protocol:
as §1
as §2, with “Compounds were loaded in a 384 Falcon v-bottom plate ([…] in a 11 point, 3-fold dilution). Membranes” for “Membranes”
A smaller value for GTPγS S1P1 EC50 value indicated greater activity for the compound in the GTPγS S1P1 binding assay. A larger value for the GTPγS S1P3 EC50 value indicated less activity in the GTPγS S1P3 binding assay. […]

Experiment [2] addresses T1, S1P1. Nature of the experiment: S1P1 binding assay (33P-S1P radioligand competition, membranes from CHO cells). The protocol:
Membranes were prepared from CHO cells expressing human S1P1. Cells pellets (1×10^9 cells/pellet) were suspended in buffer containing 20 mM HEPES (4-(2-hydroxyethyl)-1-piperazineethanesulfonic acid), pH 7.5, 50 mM NaCl, 2 mM EDTA (Ethylenediaminetetraacetic acid) and Protease Inhibitor cocktail (Roche), and disrupted on ice using the Polytron homogenizer. The homogenate was centrifuged at 20,000 rpm (48,000 g) and the supernatant was discarded. The membrane pellets were resuspended in buffer containing 50 mM HEPES, pH 7.5, 100 mM NaCl, 1 mM MgCl2, 2 mM EDTA and stored in aliquots at −80° C. after protein concentration determination.

Experiment [3] has as its system rat adjuvant-induced arthritis model (hind paw volume). The experiment can be described thus: Rat Adjuvant Induced Arthritis Assay (AA). As to conditions: Lewis rat, prophylactic oral dosing regimen. It counts as in vivo, Lewis rats. The protocol: Rat Adjuvant Induced Arthritis Assay (AA)
The rat adjuvant-induced arthritis model is an animal model for human rheumatoid arthritis.
Male Lewis rats (150-175 g; Harlan, n=8 treatment group) were immunized at the base of the tail with 100 μl of 10 mg/ml freshly ground Mycobacterium butyricum (Difco Laboratories) in incomplete Freund's adjuvant (sigma). Animals were dosed once daily with the test article (as a solution or suspension in the vehicle) or vehicle alone (polyethylene glycol 300, “PEG300”) starting from the day of immunization. The volumes of their hind paws were measured in a water displacement plethysmometer (Ugo Basile, Italy). The baseline paw measurements were taken before onset of the disease (between day 7 to day 10). The paw measurements were then taken three times a week until the end of the study on day 20 to 21. All procedures involving animals were reviewed and approved by the Institutional Animal Care Use Committee.

The subject of experiment [4] is rat EAE model (clinical score). The experiment can be described thus: Rat Experimental Autoimmune Encephalomyelitis (EAE). In kind it is in vivo, Lewis rats. The settings on record: Lewis rat; for Clinical Score on Day 11 (Mean): rat EAE, prophylactic oral dosing. The protocol: Rat Experimental Autoimmune Encephalomyelitis (EAE):
Female Lewis rats (150-200 g; Harlan) were immunized at the base of the tail with 0.1 ml of a complete Freund's adjuvant emulsion containing 0.5 mg/mL guinea pig myelin basic protein (Genemed Synthesis) and 2 mg/mL Mycobacterium butyricum (Difco). Beginning on Day 7, rats (n=11/group) were scored individually at least 3×/wk according to the following scheme:
Average clinical scores were calculated for each treatment group on each day of assessment.

The subject of experiment [5] is mouse EAE model (clinical score). The experiment can be described thus: Mouse Experimental Autoimmune Encephalomyelitis Assay (EAE). It counts as in vivo. The settings on record: C57Bl/6 mice, prophylactic oral dosing regimen. As to the method:
Mouse Experimental Autoimmune Encephalomyelitis Assay (EAE)
Mice (C57BL/6 female, 6-8 weeks of age, Charles River, n=10 treatment group) were immunized subcutaneously with 150 μg MOG35-55 emulsified 1:1 with incomplete Freund's adjuvant (sigma) supplemented with 150 μg Mycobacterium tuberculosis H37RA (Difco Laboratories). 400 ng of pertussis toxin (CalBiochem) was injected intraperitoneally on the day of immunization and 2 day later. Clinical scoring and body weight were taken 3 times per week. Clinical scoring system: 0.5: partial tail weakness; 1: limp tail or waddling gait with tail tonicity; 1.5: waddling gait with partial tail weakness; 2: waddling gait with limp tail (ataxia); 2.5: ataxia with partial limb paralysis; 3: full paralysis of one limb; 3.5: full paralysis of one limbs with partial paralysis of a second limb; 4: full paralysis of two limbs; 4.5: moribund; 5: death. Mean clinical score was calculated by averaging the scores of all mice in each group. All procedures involving animals were reviewed and approved by the Institutional Animal Care Use Committee.

In experiment [6] the test system is MRL/lpr spontaneous lupus model. The experiment can be described thus: MRL/lpr Lupus Model (anti-dsDNA antibody titers, kidney histology). It counts as in vivo. As to conditions: MRL/lpr mice, p.o. daily, 0.06, 0.3, 1.5 mg/kg. From the text:
MRL/lpr Lupus Model: MRL/lpr is a spontaneous model of lupus. Male MRL/lpr mice (Jackson Laboratory) at the age of 12-14 weeks were enrolled for the study (N=12). […] Mice were bled every other week for anti-dsDNA antibodies measured by ELISA using pooled serum from diseased MRL/lpr mice as a positive comparator in each assay. The data were expressed in arbitrary units as a ratio of the titer of the test serum to the titer of the pooled MRL/lpr immune serum. At the end of study, one kidney was collected into 10% neutral buffered formalin and ZincTris fixatives. Fixed tissues were processed into paraffin blocks, sectioned at 3 μm, and stained with H&E or PASH. Kidney sections were graded using following criteria: Glomerular Damage: 1. Mesangial matrix thickening, cell proliferation, 2. Crescent formation, cellular deposits/casts in Bowman's space, 3. Cellular infiltration, mononuclear cells in glomerular tufts, 4. Fibrosis of Bowman's capsule. Tubular damage: 1. Infiltration of mononuclear cells, 2. Severity of tubular damage, 3. Protein casts. Tubulo-interstitial damage: 1. Fibrosis, 2. Infiltration of mononuclear cells. Each subcategory was assigned a score from 0-4, with the scores for glomerular indices representing the mean from 20 glomeruli per kidney. The total score for each mouse was the sum of the above 9 subcategories, with the highest possible score=36.

A further experiment addresses hS1P1 (Homo sapiens (Human), UniProt P21453). Nature of the experiment: hS1P1 ERK phosphorylation (S1P1 pERK) in hS1P1/CHO cells. It counts as cell-based. As to conditions: phosphate examples. The protocol:
hS1P1 ERK Phosphorylation (S1P1 pERK)
hS1P1/CHO cells were plated into BD Amine 384-well plates the day before the assay. On the day of the assay, growth medium was removed and replaced with serum-free medium (Ham's F-12 Invitrogen) and incubated for 2 hours. Test compounds pre-diluted in HBSS (Gibco)/20 mM HEPES (Gibco) were transferred to the cell plates and incubated for 7 minutes at 37° C. Cells were lysed in lysis buffer (Perkin Elmer) and phospho-ERK was measured using the SureFire pERK kit (Perkin Elmer) as described by the manufacturer. Data was plotted as percentage activation of the test compound relative to the efficacy of 10 μM S1P.

Setting [7] is: membranes from S1P1/CHO cells, read-out: GTPγS S1P1 EC50.
Where [8] appears, read: 33P-S1P competition, membranes from CHO cells expressing human S1P1, read-out: S1P1 Binding IC50.

T1 sequence (P21453 whole entry): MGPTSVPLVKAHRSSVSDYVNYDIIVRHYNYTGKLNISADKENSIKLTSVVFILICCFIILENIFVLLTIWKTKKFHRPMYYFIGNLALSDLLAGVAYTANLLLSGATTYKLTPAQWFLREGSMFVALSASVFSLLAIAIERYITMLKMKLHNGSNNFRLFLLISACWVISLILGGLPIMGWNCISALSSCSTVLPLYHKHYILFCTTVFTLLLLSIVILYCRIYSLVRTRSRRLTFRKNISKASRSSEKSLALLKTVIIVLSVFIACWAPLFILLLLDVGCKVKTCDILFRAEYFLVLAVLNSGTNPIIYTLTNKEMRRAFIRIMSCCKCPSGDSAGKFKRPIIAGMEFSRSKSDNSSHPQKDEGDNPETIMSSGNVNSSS
Sequence of S1P3 (EDG3) (Q99500 whole entry): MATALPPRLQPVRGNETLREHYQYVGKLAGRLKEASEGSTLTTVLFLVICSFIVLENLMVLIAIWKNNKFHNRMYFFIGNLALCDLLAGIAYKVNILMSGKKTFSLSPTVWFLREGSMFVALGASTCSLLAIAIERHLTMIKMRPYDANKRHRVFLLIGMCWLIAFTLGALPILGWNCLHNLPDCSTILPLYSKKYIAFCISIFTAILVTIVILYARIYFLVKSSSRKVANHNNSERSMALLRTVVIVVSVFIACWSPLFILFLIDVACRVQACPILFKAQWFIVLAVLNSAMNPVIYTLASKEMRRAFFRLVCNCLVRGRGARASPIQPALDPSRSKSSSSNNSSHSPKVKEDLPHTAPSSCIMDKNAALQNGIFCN
Sequence of hS1P1 (P21453 whole entry): as the sequence (P21453 whole entry) above

Consider `COCCCCCC1CCc2cc([C@H]3CC[C@](N)(COP(=O)(O)O)C3)ccc2C1` (single isomer, unassigned) [Example 689], for which the “activity as an agonist of S1P1” value on S1P1 [1] is recorded as “possessed activity as an agonist of S1P1”. For the same compound, the “selectivity over S1P3” value on S1P3 (EDG3) (result in words, S1P1 versus S1P3 GTPγS) is listed as “selective over S1P3”.
On to `COCCCCCC1CCc2cc([C@@H]3CC[C@](N)(COP(=O)(O)O)C3)ccc2C1` (single isomer, unassigned) [Example 692], for which the EC50 on S1P1 [1] (setting [7]) was found to be 4.4 nM.
Consider `COc1cccc(CCC2CCc3cc([C@H]4CC[C@](N)(COP(=O)(O)O)C4)ccc3C2)c1` (single isomer, unassigned) [Example 693], for which the IC50 on S1P1 [2] (setting [8]) amounted to 5.2 nM. Also, the EC50 on S1P1 [1] (setting [7]) was 19.2 nM.
On to `CCOCCCC1CCc2cc([C@H]3CC[C@](N)(COP(=O)(O)O)C3)ccc2C1` (single isomer, unassigned) [Example 695], for which the IC50 on S1P1 [2] (setting [8]) is 119 nM. Further, at S1P1 [1] (setting [7]), the EC50 amounted to 49 nM.
As to `COc1ccccc1CCC1CCc2cc([C@H]3CC[C@](N)(COP(=O)(O)O)C3)ccc2C1` (single isomer, unassigned) [Example 697], the “activity as an agonist of S1P1” value at S1P1 [1] is listed as “possessed activity as an agonist of S1P1”.
On to `COCCCCC[C@H]1CCc2cc([C@H]3CC[C@](N)(CO)C3)ccc2C1` [Example 672, ((1R,3S)-1-amino-3-((S)-6-(5-methoxypentyl)-5,6,7,8-tetrahydronaphthalen-2-yl)cyclopentyl)methanol], for which the “inhibition of disease progression as measured by reduced paw swelling” value in experiment [3] is reported as “showed inhibition of disease progression”.
Take `CCOCCC[C@@H]1CCc2cc([C@H]3CC[C@](N)(CO)C3)ccc2C1` [Example 679, ((1R,3S)-1-amino-3-((S)-6-(3-ethoxypropyl)-5,6,7,8-tetrahydronaphthalen-2-yl)cyclopentyl)methanol]: the “inhibition of disease progression as measured by reduced clinical scores” value in experiment [4] (prophylactic oral dosing regimen) was “showed inhibition of disease progression”. In addition, the “Clinical Score on Day 11 (Mean)” value was 0.36 in experiment [4] (0.3 mg/kg), 0.09 in experiment [4] (1.0 mg/kg) and 0.02 in experiment [4] (3.0 mg/kg). In experiment [3], the “inhibition of disease progression as measured by reduced paw swelling” value is “showed inhibition of disease progression”. Also, the “inhibition of disease progression as measured by clinical scores” value in experiment [5] is reported as “showed inhibition of disease progression; also recorded: inhibit disease progression”.
In the case of `COc1ccccc1CC[C@@H]1CCc2cc([C@H]3CC[C@](N)(CO)C3)ccc2C1` [Example 681, ((1R,3S)-1-amino-3-((S)-6-(2-methoxyphenethyl)-5,6,7,8-tetrahydronaphthalen-2-yl)cyclopentyl)methanol], the “inhibition of disease progression as measured by anti-dsDNA titers and kidney histology” value in experiment [6] was “showed inhibition of disease progression”. Further, the “inhibition of disease progression as measured by clinical scores” value in experiment [5] is recorded as “showed inhibition of disease progression; also recorded: inhibit disease progression”.
Take `CCC/C=C/CO[C@@H]1CCc2cc([C@H]3CC[C@](N)(COP(=O)(O)O)C3)ccc2C1` [compound 439]: the EC50 at hS1P1 was < 10 nM; at S1P1 [1] (phosphate examples, read-out: S1P1 GTPγS), 10 to 100 nM; on S1P3 (EDG3) (phosphate examples), > 625 nM. Besides, at S1P1 [2] (phosphate examples, read-out: S1P1 Binding), the IC50 is < 10 nM.
